These results are taken from patent US4769368A, “2,3,4,8,9,9A-Hexahydro-4-aryl-1H-indeno(1,7-CD)azepines” (SmithKline Beckman Corporation, priority 1986, dated 1988).

Structures can show the parent of a compound that is named as a salt.

Test [1] concerns D2-dopamine sites (bovine pituitary). The experiment in a line: Displacement of [3H] spiroperidol, bovine pituitary (D2) binding. The following applies: at 10^-5 M, 10 µM. An excerpt:
(§1) As an example of the D1 -dopamine specificity of the compounds of this invention, a species of formula I, 6,7-dihydroxy-2,3,4,8,9-9a-hexahydro-4-phenyl-1H-indeno[1,7-cd]azepine hydrobromide, was submitted to standard binding tests for D1 and D2 -dopamine sites, see K. Flaim, loc. cit. for testing protocols.
[^3 H] spiroperidol bovine
In general terms: In a radioligand displacement assay an active substance lowers the binding of a labelled ligand.

Test [2] has as its system dopamine D1 and D2 receptor. The following applies: in words; U.S. Pat. No. 4,197,297; cited from earlier work.
The conditions of test [3]: in words; peripheral dopaminergic agent; cited from earlier work.
The target of test [4] is T1, D1-dopamine sites (rat caudate) (Rattus norvegicus, UniProt P18901).
T1 construct: rat caudate; from tissue; host or cells: rat caudate
The experiment in a line: Displacement of [3H] fenoldopam, rat caudate (D1) binding. The following applies: in words.
Description: as §1
[^3 H] fenoldopam rat caudate

T1 sequence (P18901 whole entry): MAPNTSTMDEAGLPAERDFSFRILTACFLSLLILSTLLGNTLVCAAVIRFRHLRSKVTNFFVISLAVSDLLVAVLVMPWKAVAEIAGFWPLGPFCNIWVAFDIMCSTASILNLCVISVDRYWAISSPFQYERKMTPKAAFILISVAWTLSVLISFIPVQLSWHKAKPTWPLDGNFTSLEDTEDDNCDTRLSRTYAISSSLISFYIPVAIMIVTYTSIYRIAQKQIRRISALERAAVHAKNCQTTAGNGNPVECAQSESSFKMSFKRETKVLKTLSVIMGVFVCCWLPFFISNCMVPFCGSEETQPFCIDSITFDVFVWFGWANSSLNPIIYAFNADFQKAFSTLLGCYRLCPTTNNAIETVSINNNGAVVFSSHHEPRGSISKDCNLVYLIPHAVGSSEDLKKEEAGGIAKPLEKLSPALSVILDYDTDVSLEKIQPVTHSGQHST

Turning to `Br.Oc1cc2c3c(c1O)CC[C@@H]3CNC[C@@H]2c1ccccc1` (stereo in doubt) [trans, trans-6,7-dihydroxy-2,3,4,8,9,9a-hexahydro-4-phenyl-1H-indeno[1,7-cd]azepine hydrobromide], in test [1], the “Displacement of [3H] spiroperidol bovine pituitary (D2)” value was 0%.

`Oc1ccc(C2CNCCc3c2cc(O)c(O)c3Cl)cc1` (centres unmarked) [fenoldopam]: the agonist activity result in test [2] was “D1 and some D2 agonist activity”. Besides, in test [3], the described activity result was “renal dilating, anti-hypertensive, anti-shock and anti-congestive heart failure activity”.

Consider `Oc1cc2c3c(c1O)CC[C@H]3CNC[C@H]2c1ccccc1` (stereo in doubt) [cis, cis-6,7-dihydroxy-2,3,4,8,9,9a-hexahydro-4-phenyl-1H-indeno[1-7-cd]azepinehydrobromide], for which the “potency and selectivity for D1 dopamine sites” value in test [4] was “very potent and selective”. For the same molecule, the “Displacement of [3H] spiroperidol bovine pituitary (D2)” value in test [1] is 14%.
